Data from patent US6479435B1, “Diaryl ethers and processes for their preparation and herbicidal and desiccant compositions containing them” (ISK Americas Incorporated, priority 1997, dated 2002).

Columns and labels:
Assay type in all cases: in vivo
[1] = system: soybean (Glycine max L., var. Pella 86, SOY); assay: Post-emerge greenhouse test, crop damage rating; conditions: 14 days after application
Procedure, shortened: (§1)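 Scores use a 0 (no damage) to 100 (complete kill) scale, taken 14 days after a foliar spray. Acetone solutions with 0.25% v/v non-ionic surfactant were applied by track sprayer at 187 l/ha and 63-1000 g ai/ha to bottom-watered 2-3 leaf plants.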

[2] = system: common ragweed (Ambrosia artemisiifolia L., AMBEL); assay: Post-emerge greenhouse herbicide test, phytotoxicity rating; conditions: 14 days after application
Procedure, shortened: as §1

[3] = system: ivyleaf morningglory (Ipomoea hederacea, IPOHE); assay: Pre-emerge greenhouse herbicide test, phytotoxicity rating; conditions: 14 days after application, rating scale 0-100
Procedure, shortened: (§2)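 Visual 0–100 injury rating (100 = all plants dead) taken 14 days after treatment. Rates of 125–1000 g ai/ha in acetone, 187 l/ha, were sprayed onto soil one day post-sowing; pots were surface-watered to incorporate, then bottom-watered.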

[4] = system: green foxtail (Setaria viridis, SETVI); assay: as above; conditions: 14 days after application, rating scale 0-100
Procedure, shortened: as §2

[5] = system: large crabgrass (Digitaria sanguinalis, DIGSA); assay: as above; conditions: 14 days after application, rating scale 0-100
Procedure, shortened: as §2

[6] = system: redroot pigweed (Amaranthus retroflexus, AMARE); assay: as above; conditions: 14 days after application, rating scale 0-100
Procedure, shortened: as §2

[7] = system: barnyardgrass (Echinochloa crusgalli, ECHCG); assay: as above; conditions: 14 days after application, rating scale 0-100
Procedure, shortened: as §2

[8] = system: velvetleaf (Abutilon theophrasti, ABUTH); assay: as above; conditions: 14 days after application, rating scale 0-100
Procedure, shortened: as §2

[9] = system: lambsquarters (Chenopodium album, CHEAL); assay: as above; conditions: 14 days after application, rating scale 0-100
Procedure, shortened: as §2

[10] = system: sicklepod (Cassia obtusifolia, CASOB); assay: as above; conditions: 14 days after application, rating scale 0-100
Procedure, shortened: as §2

[11] = system: Johnsongrass (Sorghum halepense, SORHA); assay: as above; conditions: 14 days after application, rating scale 0-100
Procedure, shortened: as §2

[12] = system: common ragweed (Ambrosia artemisiifolia L., AMBEL); assay: as above; conditions: 14 days after application, rating scale 0-100
Procedure, shortened: as §2

[13] = system: ivyleaf morningglory (Ipomoea hederacea, IPOHE); assay: Post-emerge greenhouse herbicide test, phytotoxicity rating; conditions: 14 days after application
Procedure, shortened: as §1

[14] = system: green foxtail (Setaria viridis, SETVI); assay: as above; conditions: 14 days after application
Procedure, shortened: as §1

[15] = system: large crabgrass (Digitaria sanguinalis, DIGSA); assay: as above; conditions: 14 days after application
Procedure, shortened: as §1

[16] = system: redroot pigweed (Amaranthus retroflexus, AMARE); assay: as above; conditions: 14 days after application
Procedure, shortened: as §1

[17] = system: barnyardgrass (Echinochloa crusgalli, ECHCG); assay: as above; conditions: 14 days after application
Procedure, shortened: as §1

[18] = system: velvetleaf (Abutilon theophrasti, ABUTH); assay: as above; conditions: 14 days after application
Procedure, shortened: as §1

[19] = system: lambsquarters (Chenopodium album, CHEAL); assay: as above; conditions: 14 days after application
Procedure, shortened: as §1

[20] = system: sicklepod (Cassia obtusifolia, CASOB); assay: as above; conditions: 14 days after application
Procedure, shortened: as §1

[21] = system: Johnsongrass (Sorghum halepense, SORHA); assay: as above; conditions: 14 days after application
Procedure, shortened: as §1

[22] = system: soybean (Glycine max L., var. Pella 86, SOY); assay: Pre-emerge greenhouse test, crop damage rating; conditions: 14 days after application, rating scale 0-100
Procedure, shortened: as §2

[23] = system: field corn (Zea mays L., var. Dekalb 535, CORN); assay: Pre-emerge greenhouse test, crop damage rating; conditions: 14 days after application, rating scale 0-100
Procedure, shortened: as §2

[24] = system: upland rice (Oryza sp., var.Tebonnet, RICE); assay: Pre-emerge greenhouse test, crop damage rating; conditions: 14 days after application, rating scale 0-100
Procedure, shortened: as §2

[25] = system: field corn (Zea mays L., var. Dekalb 535, CORN); assay: Post-emerge greenhouse test, crop damage rating; conditions: 14 days after application
Procedure, shortened: as §1

[26] = system: upland rice (Oryza sp., var.Tebonnet, RICE); assay: Post-emerge greenhouse test, crop damage rating; conditions: 14 days after application
Procedure, shortened: as §1

Cn1c(C(F)(F)F)nc(-c2cc(Oc3ncccn3)c(Cl)cc2F)c1Cl [Compound 2-3]
SOY crop damage rating (0-100) ([1]; 63 g al/ha): 90 | SOY crop damage rating (0-100) ([1]; 500 g al/ha): 90 | AMBEL phytotoxicity rating (0-100) ([2]; 63 g al/ha): 30 | AMBEL phytotoxicity rating (0-100) ([2]; 500 g al/ha): 60 | phytotoxicity rating IPOHE ([3]; 125 g ai/ha): 20 | phytotoxicity rating IPOHE ([3]; 500 g ai/ha): 100 | phytotoxicity rating SETVI ([4]; 125 g ai/ha): 95 | phytotoxicity rating SETVI ([4]; 500 g ai/ha): 100 | phytotoxicity rating DIGSA ([5]; 125 g ai/ha): 100 | phytotoxicity rating DIGSA ([5]; 500 g ai/ha): 100 | phytotoxicity rating AMARE ([6]; 125 g ai/ha): 100 | phytotoxicity rating AMARE ([6]; 500 g ai/ha): 100 | phytotoxicity rating ECHCG ([7]; 125 g ai/ha): 80 | phytotoxicity rating ECHCG ([7]; 500 g ai/ha): 100 | phytotoxicity rating ABUTH ([8]; 125 g ai/ha): 100 | phytotoxicity rating ABUTH ([8]; 500 g ai/ha): 100 | phytotoxicity rating CHEAL ([9]; 125 g ai/ha): 100 | phytotoxicity rating CHEAL ([9]; 500 g ai/ha): 100 | phytotoxicity rating CASOB ([10]; 125 g ai/ha): 30 | phytotoxicity rating CASOB ([10]; 500 g ai/ha): 100 | phytotoxicity rating SORHA ([11]; 125 g ai/ha): 100 | phytotoxicity rating SORHA ([11]; 500 g ai/ha): 100 | phytotoxicity rating AMBEL ([12]; 125 g ai/ha): 35 | phytotoxicity rating AMBEL ([12]; 500 g ai/ha): 90 | IPOHE phytotoxicity rating (0-100) ([13]; 63 g al/ha): 100 | IPOHE phytotoxicity rating (0-100) ([13]; 500 g al/ha): 100 | SETVI phytotoxicity rating (0-100) ([14]; 63 g al/ha): 100 | SETVI phytotoxicity rating (0-100) ([14]; 500 g al/ha): 100 | DIGSA phytotoxicity rating (0-100) ([15]; 63 g al/ha): 0 | DIGSA phytotoxicity rating (0-100) ([15]; 500 g al/ha): 80 | AMARE phytotoxicity rating (0-100) ([16]; 63 g al/ha): 100 | AMARE phytotoxicity rating (0-100) ([16]; 500 g al/ha): 100 | ECHCG phytotoxicity rating (0-100) ([17]; 63 g al/ha): 30 | ECHCG phytotoxicity rating (0-100) ([17]; 500 g al/ha): 95 | ABUTH phytotoxicity rating (0-100) ([18]; 63 g al/ha): 95 | ABUTH phytotoxicity rating (0-100) ([18]; 500 g al/ha): 100 | CHEAL phytotoxicity rating (0-100) ([19]; 63 g al/ha): 90 | CHEAL phytotoxicity rating (0-100) ([19]; 500 g al/ha): 100 | CASOB phytotoxicity rating (0-100) ([20]; 63 g al/ha): 30 | CASOB phytotoxicity rating (0-100) ([20]; 500 g al/ha): 70 | SORHA phytotoxicity rating (0-100) ([21]; 63 g al/ha): 80 | SORHA phytotoxicity rating (0-100) ([21]; 500 g al/ha): 95 | crop damage rating SOY ([22]; 125 g ai/ha): 50 | crop damage rating SOY ([22]; 500 g ai/ha): 25 | crop damage rating CORN ([23]; 125 g ai/ha): 25 | crop damage rating CORN ([23]; 500 g ai/ha): 35 | crop damage rating RICE ([24]; 125 g ai/ha): 30 | crop damage rating RICE ([24]; 500 g ai/ha): 55 | CORN crop damage rating (0-100) ([25]; 63 g al/ha): 30 | CORN crop damage rating (0-100) ([25]; 500 g al/ha): 80 | RICE crop damage rating (0-100) ([26]; 63 g al/ha): 40 | RICE crop damage rating (0-100) ([26]; 500 g al/ha): 90
